Source: patent US10112937B2, “P2X7 modulators and methods of use” (Janssen Pharmaceutica NV, priority 2013, dated 2018)
Structures can show the parent of a compound that is named as a salt.

Biological target: human P2X7 (Homo sapiens (Human), UniProt Q99572)
Assay: P2X7 antagonism in human PBMCs (IL-1β release after LPS + Bz-ATP, ELISA)
Format: cell-based
Settings: human PBMCs; for PBMC 1 μM (% control): test compound 1 μM

Chain of human P2X7 (Q99572 whole entry): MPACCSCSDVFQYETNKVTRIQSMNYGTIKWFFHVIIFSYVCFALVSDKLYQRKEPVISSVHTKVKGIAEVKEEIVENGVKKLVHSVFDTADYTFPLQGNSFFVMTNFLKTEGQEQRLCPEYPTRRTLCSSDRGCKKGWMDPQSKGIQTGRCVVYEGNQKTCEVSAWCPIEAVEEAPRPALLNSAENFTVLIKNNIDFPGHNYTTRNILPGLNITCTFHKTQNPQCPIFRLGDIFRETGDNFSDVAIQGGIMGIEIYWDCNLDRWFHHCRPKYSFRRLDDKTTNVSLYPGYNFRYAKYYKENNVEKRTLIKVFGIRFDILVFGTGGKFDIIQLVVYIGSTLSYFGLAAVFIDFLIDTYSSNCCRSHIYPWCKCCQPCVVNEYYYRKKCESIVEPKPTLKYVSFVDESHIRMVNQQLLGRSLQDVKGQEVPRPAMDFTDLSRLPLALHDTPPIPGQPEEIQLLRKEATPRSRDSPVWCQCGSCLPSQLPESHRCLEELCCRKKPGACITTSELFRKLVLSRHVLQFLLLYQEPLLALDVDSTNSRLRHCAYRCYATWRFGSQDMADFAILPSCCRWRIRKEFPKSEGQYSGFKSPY

| Structure (SMILES) | PBMC 1 μM (% control) | PBMC 10 μM (% control) (test compound 10 μM) | other results |
| --- | --- | --- | --- |
| Cc1ccnc(-n2nnc3c2CCN(C(=O)c2cccc(C(F)(F)F)c2Cl)[C@H]3C)n1 (single isomer, unassigned) [Example 439, (S*)-(2-chloro-3-(trifluoromethyl)phenyl)(4-methyl-1-(4-methylpyrimidin-2-yl)-6,7-dihydro-1H-[1,2,3]triazolo[4,5-c]pyridin-5(4H)-yl)methanone] | – | – | PBMC 10 μM (% control) (10 μM test compound, LPS + Bz-ATP): 1.2 % control |
| O=C(c1cccc(Cl)c1Cl)N1CCc2c(ncn2-c2ccccc2)C1 [Example 3, (2,3-Dichlorophenyl)(1-phenyl-6,7-dihydro-1H-imidazo[4,5-c]pyridin-5(4H)-yl)methanone] | 23.0 | – | – |
| O=C(c1cccc(Cl)c1Cl)N1CCc2c(ncn2-c2ccccn2)C1 [Example 4, (2,3-Dichlorophenyl)(1-(pyridin-2-yl)-6,7-dihydro-1H-imidazo[4,5-c]pyridin-5(4H)-yl)methanone] | – | −3.7 | – |
| CC1c2ncn(-c3ccc(F)cn3)c2CCN1C(=O)c1cccc(C(F)(F)F)c1Cl (centres unmarked) [Example 11, (2-Chloro-3-(trifluoromethyl)phenyl)(1-(5-fluoropyridin-2-yl)-4-methyl-6,7-dihydro-1H-imidazo[4,5-c]pyridin-5(4H)-yl)methanone] | – | 3.7 | – |
| CC1c2ncn(-c3ccccn3)c2CCN1C(=O)c1cccc(C(F)(F)F)c1Cl (centres unmarked) [Example 17, (2-Chloro-3-(trifluoromethyl)phenyl)(4-methyl-1-(pyridin-2-yl)-6,7-dihydro-1H-imidazo[4,5-c]pyridin-5(4H)-yl)methanone] | 6.5 | – | – |
| CC1c2ncn(-c3ccc(F)cc3)c2CCN1C(=O)c1cccc(C(F)(F)F)c1Cl (centres unmarked) [Example 18, (2-Chloro-3-(trifluoromethyl)phenyl)(1-(4-fluorophenyl)-4-methyl-6,7-dihydro-1H-imidazo[4,5-c]pyridin-5(4H)-yl)methanone] | 5.3 | – | – |
| CC1c2ncn(-c3ccc(F)cc3)c2CCN1C(=O)c1cccc(C(F)(F)F)c1F (centres unmarked) [Example 20, (2-Fluoro-3-(trifluoromethyl)phenyl)(1-(4-fluorophenyl)-4-methyl-6,7-dihydro-1H-imidazo[4,5-c]pyridin-5(4H)-yl)methanone] | – | 8.6 | – |
| O=C(c1cccc(C(F)(F)F)c1Cl)N1CCc2c(ncn2-c2ccccc2)C1CO (centres unmarked) [Example 30, (5-{[2-Chloro-3-(trifluoromethyl)phenyl]carbonyl}-1-phenyl-4,5,6,7-tetrahydro-1H-imidazo[4,5-c]pyridin-4-yl)methanol] | 87.0 | – | – |
| Cc1nc2c(n1-c1ccccc1)CCN(C(=O)c1cccc(C(F)(F)F)c1Cl)C2 [Example 37, (2-Chloro-3-(trifluoromethyl)phenyl)(2-methyl-1-phenyl-6,7-dihydro-1H-imidazo[4,5-c]pyridin-5(4H)-yl)methanone] | – | −9.1 | – |
| O=C(c1cccc(C(F)(F)F)c1Cl)N1CCc2c(nc(C(F)(F)F)n2-c2ccccc2)C1 [Example 38, (2-Chloro-3-(trifluoromethyl)phenyl)(1-phenyl-2-(trifluoromethyl)-6,7-dihydro-1H-imidazo[4,5-c]pyridin-5(4H)-yl)methanone] | – | −0.3 | – |
| O=C(c1cccc2c1OC(F)(F)O2)N1CCc2c(ncn2-c2ccccc2)C1 [Example 50, 5-[(2,2-Difluoro-1,3-benzodioxol-4-yl)carbonyl]-1-phenyl-4,5,6,7-tetrahydro-1H-imidazo[4,5-c]pyridine] | 96.0 | – | – |
| O=C(c1cccc(C(F)(F)F)c1Cl)N1C=Cc2c(ncn2-c2cnccn2)C1 [Example 54, 5-{[2-Chloro-3-(trifluoromethyl)phenyl]carbonyl}-1-pyrazin-2-yl-4,5-dihydro-1H-imidazo[4,5-c]pyridine] | 8.6 | – | – |
| O=C(c1cccc(Cl)c1Cl)N1CCc2c(nc(C(F)(F)F)n2-c2ccccc2)C1 [Example 58, 5-[(2,3-Dichlorophenyl)carbonyl]-1-phenyl-2-(trifluoromethyl)-4,5,6,7-tetrahydro-1H-imidazo[4,5-c]pyridine] | – | −2.0 | – |
| O=C(c1cccc(Cl)c1Cl)N1CCc2c(ncn2-c2ccn[nH]2)C1 [Example 60, 5-[(2,3-Dichlorophenyl)carbonyl]-1-(1H-pyrazol-5-yl)-4,5,6,7-tetrahydro-1H-imidazo[4,5-c]pyridine] | – | 8.4 | – |
| O=C(c1cccc(Cl)c1Cl)N1CCc2c(nnn2-c2ccccc2)C1 [Example 62, 5-[(2,3-Dichlorophenyl)carbonyl]-1-phenyl-4,5,6,7-tetrahydro-1H-[1,2,3]triazolo[4,5-c]pyridine] | 5.2 | – | – |
| O=C(c1cccc(C(F)(F)F)c1Cl)N1CCc2c(nnn2-c2ncccn2)C1 [Example 65, 5-{[2-Chloro-3-(trifluoromethyl)phenyl]carbonyl}-1-pyrimidin-2-yl-4,5,6,7-tetrahydro-1H-[1,2,3]triazolo[4,5-c]pyridine] | – | 5.8 | – |

| Structure (SMILES) | PBMC 1 μM (% control) | PBMC 10 μM (% control) (test compound 10 μM) | other results |
| --- | --- | --- | --- |
| O=C(c1cccc(C(F)(F)F)c1F)N1CCc2c(nnn2-c2cnccn2)C1 [Example 69, 5-{[2-Fluoro-3-(trifluoromethyl)phenyl]carbonyl}-1-pyrazin-2-yl-4,5,6,7-tetrahydro-1H-[1,2,3]triazolo[4,5-c]pyridine] | – | 6.8 | – |
| CC1c2nnn(-c3cnccn3)c2C=CN1C(=O)c1cccc(C(F)(F)F)c1Cl (centres unmarked) [Example 72, 5-{[2-Chloro-3-(trifluoromethyl)phenyl]carbonyl}-4-methyl-1-pyrazin-2-yl-4,5-dihydro-1H-[1,2,3]triazolo[4,5-c]pyridine] | −5.7 | – | – |
| CC1c2nnn(-c3cnccn3)c2CCN1C(=O)c1cccc(C(F)(F)F)c1Cl (centres unmarked) [Example 73, 5-{[2-Chloro-3-(trifluoromethyl)phenyl]carbonyl}-4-methyl-1-pyrazin-2-yl-4,5,6,7-tetrahydro-1H-[1,2,3]triazolo[4,5-c]pyridine] | 4.3 | – | – |
| O=C(c1cccc(C(F)(F)F)c1Cl)N1C=Cc2c(nnn2-c2cnccn2)C1c1ccccc1 (centres unmarked) [Example 76, 5-{[2-Chloro-3-(trifluoromethyl)phenyl]carbonyl}-4-phenyl-1-pyrazin-2-yl-4,5-dihydro-1H-[1,2,3]triazolo[4,5-c]pyridine] | 1.6 | – | – |
| CC1c2nnn(-c3ncccn3)c2CCN1C(=O)c1cccc(C(F)(F)F)c1Cl (centres unmarked) [Example 80, 5-{[2-Chloro-3-(trifluoromethyl)phenyl]carbonyl}-4-methyl-1-pyrimidin-2-yl-4,5,6,7-tetrahydro-1H-[1,2,3]triazolo[4,5-c]pyridine] | – | 4.6 | – |
| CC1c2nnn(-c3ccc(F)cc3)c2C=CN1C(=O)c1cccc(C(F)(F)F)c1Cl (centres unmarked) [Example 81, 5-{[2-Chloro-3-(trifluoromethyl)phenyl]carbonyl}-1-(4-fluorophenyl)-4-methyl-4,5-dihydro-1H-[1,2,3]triazolo[4,5-c]pyridine] | – | 5.9 | – |
| CC1c2nnn(-c3ncccc3F)c2C=CN1C(=O)c1cccc(C(F)(F)F)c1Cl (centres unmarked) [Example 82, 5-{[2-Chloro-3-(trifluoromethyl)phenyl]carbonyl}-1-(3-fluoropyridin-2-yl)-4-methyl-4,5-dihydro-1H-[1,2,3]triazolo[4,5-c]pyridine] | – | 7.9 | – |
| CC1c2nnn(-c3ccc(F)cc3)c2CCN1C(=O)c1cccc(C(F)(F)F)c1Cl (centres unmarked) [Example 83, 5-{[2-Chloro-3-(trifluoromethyl)phenyl]carbonyl}-1-(4-fluorophenyl)-4-methyl-4,5,6,7-tetrahydro-1H-[1,2,3]triazolo[4,5-c]pyridine] | – | 4.5 | – |
| CC1c2nnn(-c3ncccc3F)c2CCN1C(=O)c1cccc(C(F)(F)F)c1Cl (centres unmarked) [Example 84, 5-{[2-Chloro-3-(trifluoromethyl)phenyl]carbonyl}-1-(3-fluoropyridin-2-yl)-4-methyl-4,5,6,7-tetrahydro-1H-[1,2,3]triazolo[4,5-c]pyridine] | – | 8.5 | – |
| CC1c2nnn(-c3cc[nH]n3)c2C=CN1C(=O)c1cccc(C(F)(F)F)c1Cl (centres unmarked) [Example 86, 5-{[2-Chloro-3-(trifluoromethyl)phenyl]carbonyl}-4-methyl-1-(1H-pyrazol-3-yl)-4,5-dihydro-1H-[1,2,3]triazolo[4,5-c]pyridine] | – | 13.0 | – |
| O=C(c1cccc(C(F)(F)F)c1Cl)N1C=Cc2c(nnn2-c2cnccn2)C1 [Example 89, 5-{[2-Chloro-3-(trifluoromethyl)phenyl]carbonyl}-1-pyrazin-2-yl-4,5-dihydro-1H-[1,2,3]triazolo[4,5-c]pyridine] | −1.5 | – | – |
| O=C(c1cccc(C(F)(F)F)c1Cl)N1CCc2c(nnn2-c2cnccn2)C1 [Example 91, 5-{[2-Chloro-3-(trifluoromethyl)phenyl]carbonyl}-1-pyrazin-2-yl-4,5,6,7-tetrahydro-1H-[1,2,3]triazolo[4,5-c]pyridine] | 6.1 | – | – |
| Cn1nc2c(c1-c1ccccn1)CCN(C(=O)c1cccc(C(F)(F)F)c1Cl)C2 [Example 92, 6-{[2-Chloro-3-(trifluoromethyl)phenyl]carbonyl}-2-methyl-3-pyridin-2-yl-4,5,6,7-tetrahydro-2H-pyrazolo[3,4-c]pyridine] | 2.7 | – | – |
| O=C(c1cccc(C(F)(F)F)c1Cl)N1CCc2c(-c3ccccn3)n[nH]c2C1 [Example 93, 6-{[2-Chloro-3-(trifluoromethyl)phenyl]carbonyl}-3-pyridin-2-yl-4,5,6,7-tetrahydro-2H-pyrazolo[3,4-c]pyridine-TFA salt] | 9.0 | – | – |
| O=C(c1cccc(C(F)(F)F)c1Cl)N1CCc2c(-c3cccnc3)n[nH]c2C1 [Example 96, 6-{[2-Chloro-3-(trifluoromethyl)phenyl]carbonyl}-3-pyridin-3-yl-4,5,6,7-tetrahydro-2H-pyrazolo[3,4-c]pyridine] | – | 3.6 | – |
| O=C(c1cccc(C(F)(F)F)c1Cl)N1CCc2c(-c3ccccc3)n[nH]c2C1 [Example 99, (2-Chloro-3-(trifluoromethyl)phenyl)(3-phenyl-4,5-dihydro-1H-pyrazolo[3,4-c]pyridin-6(7H)-yl)methanone] | 7.0 | – | – |
